Measured values published in publication PMC8887546, “Design and Synthesis of Brain Penetrant Glycopeptide Analogues of PACAP With Neuroprotective Potential for Traumatic Brain Injury and Parkinsonism” (Frontiers in drug discovery, 2022).

System: C57BL/6 mice, diffuse TBI
Experiment: Iba1 microglial skeletal analysis after TBI
Format: in vivo, mouse
Conditions: 10 mg/kg i.p. 30 min prior to TBI, 15 DPI, cortex
Description: 30 min prior to TBI or sham injury, mice were randomly assigned to a therapeutic group and received an intraperitoneal injection of 2LS80Mel (10 mg/kg) or sterile saline (0.25 ml). Groups were as follows: TBI-2LS80Mel n = 17; TBI-vehicle n = 17; sham n = 22 (vehicle n = 11, 2LS80Mel n = 11).
For injury induction 24 h post-surgery, mice were re-anesthetized with 5% isoflurane delivered for 3 min. The cap was removed from the injury-hub assembly and the dura was visually inspected through the hub to ensure it was intact with no debris. The hub was then filled with normal saline and attached to an extension tube connected to the male end of the fluid percussion device (Custom Design and Fabrication, Virginia Commonwealth University, Richmond, VA). An injury of moderate severity for our injury model (1.4 atm) was administered by releasing the pendulum onto the fluid-filled cylinder following the return of a toe-pinch response. Sham mice underwent the same procedure except the pendulum was not released. Injured mice were monitored for presence of a forearm fencing response and righting reflex times were recorded as indicators of injury severity ([Hosseini and Lifshitz, 2009]). […] After spontaneously righting, mice were placed in a heated recovery cage and monitored until they were ambulatory (approximately 5–15 min) before being returned to their piezoelectric sleep cage (see below). […]

## CC[C@H](C)[C@H](NC(=O)CNC(=O)[C@H](CC(=O)O)NC(=O)[C@H](CO)NC(=O)[C@@H](N)Cc1c[nH]cn1)C(=O)N[C@@H](Cc1ccccc1)C(=O)N[C@H](C(=O)N[C@@H](CC(=O)O)C(=O)N[C@@H](CO)C(=O)N[C@@H](Cc1ccc(O)cc1)C(=O)N[C@@H](CO)C(=O)N[C@@H](CCCNC(=N)N)C(=O)N[C@@H](Cc1ccc(O)cc1)C(=O)N[C@@H](CCCNC(=N)N)C(=O)N[C@@H](CCCCN)C(=O)N[C@@H](CCC(N)=O)C(=O)N[C@@H](CC(C)C)C(=O)N[C@@H](C)C(=O)N[C@H](C(=O)N[C@@H](CCCCN)C(=O)N[C@@H](CCCCN)C(=O)N[C@@H](Cc1ccc(O)cc1)C(=O)N[C@@H](CC(C)C)C(=O)N[C@@H](C)C(=O)N[C@@H](C)C(=O)N[C@H](C(=O)N[C@@H](CC(C)C)C(=O)N[C@@H](CO[C@@H]1O[C@H](CO[C@H]2O[C@H](CO)[C@H](O)[C@H](O)[C@H]2O)[C@@H](O)[C@H](O)[C@H]1O)C(N)=O)C(C)C)C(C)C)[C@@H](C)O [Compound 2LS80Mel]
  Microglial ramification: no significant differences
